Data set [1] can be described thus: Local anesthetic activity in desheathed frog sciatic nerve. The data set is classed as functional, tissue-based, Anura.
Data set [2] concerns Right cardiac atrium. The data set is described as follows: Negative chronotropic activity in guinea pig right atrium assessed as atrial rate at MEC after 30 mins. The data set is classed as functional, tissue-based. The settings on record: Cavia porcellus.
Data set [3] has as its system Right cardiac atrium. The data set is described as follows: Antiarrhythmic activity in guinea pig right atrium assessed as inhibition of ouabain-induced arrhythmia. It is filed as functional, Cavia porcellus.
Data set [4] can be described thus: 1-octanol-phosphate buffer apparent partition coefficient, log P of the compound at pH 7.4. It is filed as physicochemical.
In data set [5] the test system is Right cardiac atrium. Kind of data set: Negative inotropic activity in guinea pig right atrium assessed as contractile force at MEC after 30 mins. The data set is classed as functional, tissue-based. Particulars: Cavia porcellus.
The nature of data set [6]: Apparent dissociation constant, pKa of the compound. The data set is classed as physicochemical.
In data set [7] the target is Beta-1 adrenergic receptor (Cavia porcellus, UniProt H0W3H1). The data set is described as follows: Antagonist activity at […] adrenergic receptor in guinea pig right atrium assessed as inhibition of isoprenaline-induced effect. The arrangement: species or system Cardiac atrium.
Data set [8] has as its target Beta-2 adrenergic receptor (Cavia porcellus, UniProt Q8K4Z4). The data set is described as follows: Antagonist activity at beta-2 adrenergic receptor in guinea pig tracheal strip assessed as inhibition of isoprenaline-induced effect. Particulars: read-out: pA2 (converted).

Each structure is given as a SMILES string. Activity calls are given as the source filed them. The rule behind the calls is not given here.

Beta-1 adrenergic receptor, sequence (H0W3H1 1-470): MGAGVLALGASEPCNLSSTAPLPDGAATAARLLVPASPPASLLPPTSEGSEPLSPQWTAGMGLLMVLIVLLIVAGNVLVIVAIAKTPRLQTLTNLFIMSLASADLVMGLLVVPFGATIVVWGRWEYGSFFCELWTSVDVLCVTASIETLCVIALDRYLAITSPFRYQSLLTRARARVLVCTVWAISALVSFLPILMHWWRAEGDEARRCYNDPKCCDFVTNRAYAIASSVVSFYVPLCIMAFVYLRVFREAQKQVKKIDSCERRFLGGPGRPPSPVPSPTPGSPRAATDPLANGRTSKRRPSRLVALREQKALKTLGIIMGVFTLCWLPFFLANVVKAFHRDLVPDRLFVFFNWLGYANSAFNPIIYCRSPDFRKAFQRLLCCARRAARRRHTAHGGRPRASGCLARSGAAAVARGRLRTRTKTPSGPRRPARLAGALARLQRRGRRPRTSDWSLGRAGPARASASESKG
Beta-2 adrenergic receptor, sequence (Q8K4Z4 whole entry): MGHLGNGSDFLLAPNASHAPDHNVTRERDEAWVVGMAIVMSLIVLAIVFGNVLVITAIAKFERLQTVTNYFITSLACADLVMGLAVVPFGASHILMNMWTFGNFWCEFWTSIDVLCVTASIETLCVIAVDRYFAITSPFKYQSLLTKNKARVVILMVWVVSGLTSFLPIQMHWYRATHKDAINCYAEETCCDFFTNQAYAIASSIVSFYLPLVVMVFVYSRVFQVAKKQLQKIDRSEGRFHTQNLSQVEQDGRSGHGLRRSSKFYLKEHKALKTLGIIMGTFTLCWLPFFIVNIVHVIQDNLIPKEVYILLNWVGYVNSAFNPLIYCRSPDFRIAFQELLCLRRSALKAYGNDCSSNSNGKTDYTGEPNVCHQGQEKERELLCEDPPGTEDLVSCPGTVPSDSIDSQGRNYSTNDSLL

Regarding `CC(C)NCC(O)COc1ccc(C(C)C)cc1OCC(O)CNC(C)C.Cl` (stereo not drawn), in data set [1], the pEC50 worked out at 2.07. The outcome in the data set on Right cardiac atrium [2] and in the data set with Right cardiac atrium [5] was Active. Moreover, the “-logMIC” value with Right cardiac atrium [3] came out at 4.7. The pH-dependent lipophilicity (logD) in data set [4] is -0.833. Also, the pKa in data set [6] was determined as 9.3.

On to `Cc1ccc(OCC(O)CNC(C)C)c(OCC(O)CNC(C)C)c1.Cl` (stereo not drawn), for which, in data set [1], the pEC50 was determined as 1.69. For the same compound, the result in the data set with Right cardiac atrium [2] and in the data set on Right cardiac atrium [5] was Active. In addition, in the data set with Right cardiac atrium [3], the “-logMIC” value is given as 4.3. In addition, the pH-dependent lipophilicity (logD) in data set [4] was -1.16. Also, the pKa in data set [6] is 9.24.

Take `CC(C)NCC(O)COc1cc2ccccc2cc1OCC(O)CNC(C)C.Cl` (stereo not drawn): in data set [7], the pA2 is recorded as 5.45. Also, the Kb in data set [8] is 158 nM. In data set [1], this compound came in with a negative logarithm of the EC50 (pEC50) of 2.2. In addition, the outcome in the data set on Right cardiac atrium [2] and with Right cardiac atrium [5] was Active. Besides, the “-logMIC” value in the data set on Right cardiac atrium [3] stood at 5.3. In addition, the pH-dependent lipophilicity (logD) in data set [4] was -0.81. In data set [6], the pKa came out at 9.18.

Consider `CC(C)NCC(O)COc1cccc2ccccc12` (stereo not drawn), for which the outcome in the data set on Right cardiac atrium [2] and in the data set on Right cardiac atrium [5] was Active.

As to `CC(C)NCC(O)COc1ccccc1OCC(O)CNC(C)C` (stereo not drawn), the pEC50 in data set [1] is 1.29. The result with Right cardiac atrium [2] and in the data set on Right cardiac atrium [5] was Active. For the same compound, in the data set on Right cardiac atrium [3], the “-logMIC” value is 3.7. Further, in data set [4], the logD is -1.19. For the same compound, the pKa in data set [6] is 9.22.

As for `CC(C)NCC(O)COc1cccc(C(C)C)c1OCC(O)CNC(C)C.Cl` (stereo not drawn), the pEC50 in data set [1] amounted to 2. In addition, the outcome with Right cardiac atrium [2] and with Right cardiac atrium [5] was Active. In addition, the “-logMIC” value in the data set on Right cardiac atrium [3] was found to be 5. Also, the pH-dependent lipophilicity (logD) in data set [4] was -0.747. In addition, the pKa in data set [6] turned out to be 9.24.

`Cc1cccc(OCC(O)CNC(C)C)c1OCC(O)CNC(C)C.Cl` (stereo not drawn) displayed a pEC50 in data set [1] of 1.8. The outcome in the data set with Right cardiac atrium [2] and with Right cardiac atrium [5] was Active. In the data set with Right cardiac atrium [3], the “-logMIC” value was determined as 4.7. In addition, the logD in data set [4] is -1.17. Moreover, in data set [6], the pKa is 9.23.

As to `CC(C)NCC(O)COc1cc2c(cc1OCC(O)CNC(C)C)CCCC2` (stereo not drawn), the pA2 in data set [7] is listed as 5.83. The Kb in data set [8] is 129 nM. In addition, the negative logarithm of the EC50 (pEC50) in data set [1] is listed as 2.02. Also, the result in the data set on Right cardiac atrium [2] and in the data set with Right cardiac atrium [5] was Active. Moreover, the “-logMIC” value with Right cardiac atrium [3] is listed as 5. Moreover, the logD in data set [4] was -0.726. In addition, in data set [6], the pKa came to 9.17.

One may read the pEC50 as the negative decadic logarithm of the EC50, by convention in mol/L. In general, logD refers to lipophilicity at a set pH, counting ionised and neutral species. Usually pKa stands for the negative logarithm of the acid dissociation constant. The pA2 is a measure of antagonist potency on a negative log scale.

These data come from ChEMBL document CHEMBL3272054, “Beta-adrenoceptor studies. 2. Effects of alkyl substitution on beta-adrenoceptor blocking, antiarrhythmic, and local anesthetic activities of 1,1'-(o-phenylenedioxy)bis(3-isopropylamino-2-propanol)” (J Med Chem, 1977).
